# Assay results published in ChEMBL document CHEMBL1201861, “Genomics of Drug Sensitity in Cancer screening data, Wellcome Trust Sanger Institute”.
# How the values were obtained:
# Experiment in all cases: cells
# BCPAP = type: functional, cell-based, Homo sapiens; settings: Homo sapiens, BCPAP;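 note: growth inhibition of BCPAP cells, read out in a cell viability assay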
# Description: SANGER: Inhibition of human BCPAP cell growth in a cell viability assay.
# MFM-223 = type: functional, cell-based, Homo sapiens; settings: Homo sapiens, MFM-223
# Description: SANGER: Inhibition of human MFM-223 cell growth in a cell viability assay.
# ASPC1 = type: functional, cell-based, Homo sapiens; settings: Homo sapiens, ASPC1;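 note: growth inhibition of AsPC-1 cells, read out with a cell viability assay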
# Description: SANGER: Inhibition of human AsPC-1 cell growth in a cell viability assay.
# GI-ME-N = type: functional, cell-based, Homo sapiens; settings: Homo sapiens, GI-ME-N;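 note: growth inhibition of human GI-ME-N cells, read out with a cell viability assay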
# Description: SANGER: Inhibition of human GI-ME-N cell growth in a cell viability assay.
# MZ7-mel = type: functional, cell-based, Homo sapiens; settings: Homo sapiens, MZ7-mel;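 note: growth inhibition of human MZ7-mel cells, measured by a cell viability assay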
# 697 = type: functional, cell-based; settings: Homo sapiens
# Description: SANGER: Inhibition of human 697 cell growth in a cell viability assay.
# CAL-39 = type: functional, cell-based, Homo sapiens; settings: Homo sapiens, CAL-39;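 note: cell viability assay measuring growth inhibition of CAL-39 cells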
# Description: SANGER: Inhibition of human CAL-39 cell growth in a cell viability assay.
# CAL-54 = type: functional, cell-based, Homo sapiens; settings: Homo sapiens, CAL-54;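 note: growth inhibition of CAL-54 cells, read out by a viability measurement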
# Description: SANGER: Inhibition of human CAL-54 cell growth in a cell viability assay.
# NCI-H1437 = type: functional, cell-based, Homo sapiens; settings: Homo sapiens, NCI-H1437;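 note: growth inhibition of human NCI-H1437 cells, read out by a cell viability assay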
# Description: SANGER: Inhibition of human NCI-H1437 cell growth in a cell viability assay.
# HAL-01 = type: functional, cell-based; settings: Homo sapiens;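 note: growth inhibition of human HAL-01 cells, read out with a cell viability assay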
# Description: SANGER: Inhibition of human HAL-01 cell growth in a cell viability assay.
# NCI-H1155 = type: functional, cell-based; settings: Homo sapiens;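 note: cell growth inhibition measured by a viability assay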
# Description: SANGER: Inhibition of human NCI-H1155 cell growth in a cell viability assay.
# Ca-Ski = type: functional, cell-based; settings: Homo sapiens;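 note: cell viability assay measuring inhibition of Ca-Ski cell growth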
# Description: SANGER: Inhibition of human Ca-Ski cell growth in a cell viability assay.
# SK-N-DZ = type: functional, cell-based, Homo sapiens; settings: Homo sapiens, SK-N-DZ;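 note: growth inhibition of the cancer cell line, read out through a viability assay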
# Description: SANGER: Inhibition of human SK-N-DZ cell growth in a cell viability assay.
# H4 = type: functional, cell-based; settings: Homo sapiens
# Description: SANGER: Inhibition of human H4 cell growth in a cell viability assay.
# HDLM-2 = type: functional, cell-based; settings: Homo sapiens;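 note: cell viability assay measuring suppression of HDLM-2 proliferation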
# Description: SANGER: Inhibition of human HDLM-2 cell growth in a cell viability assay.
# BHY = type: functional, cell-based, Homo sapiens; settings: Homo sapiens, BHY;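 note: cell growth inhibition read out by a viability assay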
# Description: SANGER: Inhibition of human BHY cell growth in a cell viability assay.
# MHH-PREB-1 = type: functional, cell-based; settings: Homo sapiens;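 note: cell viability assay measuring inhibition of proliferation of human MHH-PREB-1 cells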
# Description: SANGER: Inhibition of human MHH-PREB-1 cell growth in a cell viability assay.
# NCI-H1651 = type: functional, cell-based, Homo sapiens; settings: Homo sapiens, NCI-H1651;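 note: Read-out is a cell viability assay, with IC50 expressing inhibition of NCI-H1651 cell growth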
# Description: SANGER: Inhibition of human NCI-H1651 cell growth in a cell viability assay.
# LCLC-97TM1 = type: functional, cell-based, Homo sapiens; settings: Homo sapiens, LCLC-97TM1;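 note: cell viability assay measuring growth inhibition of human LCLC-97TM1 cells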
# Description: SANGER: Inhibition of human LCLC-97TM1 cell growth in a cell viability assay.
# EC-GI-10 = type: functional, cell-based, Homo sapiens; settings: Homo sapiens, EC-GI-10
# Description: SANGER: Inhibition of human EC-GI-10 cell growth in a cell viability assay.
# KYSE-410 = type: functional, cell-based, Homo sapiens; settings: Homo sapiens, KYSE-410;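 note: growth inhibition of KYSE-410 cells, measured through a cell viability readout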
# Description: SANGER: Inhibition of human KYSE-410 cell growth in a cell viability assay.
# M059J = type: functional, cell-based, Homo sapiens; settings: Homo sapiens, M059J;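 note: growth inhibition of M059J cells, read out with a cell viability assay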
# Description: SANGER: Inhibition of human M059J cell growth in a cell viability assay.
# EW-18 = type: functional, cell-based; settings: Homo sapiens;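 note: growth inhibition of EW-18 cells, read out by a cell viability assay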
# Description: SANGER: Inhibition of human EW-18 cell growth in a cell viability assay.
# ES3 = type: functional, cell-based, Homo sapiens; settings: Homo sapiens, ES3;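 note: growth inhibition of ES3 cells, read out with a cell viability assay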
# NMC-G1 = type: functional, cell-based, Homo sapiens; settings: Homo sapiens, NMC-G1;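 note: growth inhibition of the NMC-G1 cell line, measured with a cell viability read-out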
# Description: SANGER: Inhibition of human NMC-G1 cell growth in a cell viability assay.
# NB5 = type: functional, cell-based, Homo sapiens; settings: Homo sapiens, NB5;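 note: growth inhibition of NB5 cells, read out as cell viability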
# Description: SANGER: Inhibition of human NB5 cell growth in a cell viability assay.
# MCF7 = type: functional, cell-based, Homo sapiens; settings: Homo sapiens, MCF7;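 note: growth inhibition of human MCF7 cells, read out with a cell viability assay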
# Description: SANGER: Inhibition of human MCF7 cell growth in a cell viability assay.
# A498 = type: functional, cell-based, Homo sapiens; settings: Homo sapiens, A498;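 note: growth inhibition of human A498 cells, read out with a cell viability assay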
# Description: SANGER: Inhibition of human A498 cell growth in a cell viability assay.
# GP5d = type: functional, cell-based, Homo sapiens; settings: Homo sapiens, GP5d;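 note: growth inhibition of human GP5d cells, read out with a cell viability assay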
# Description: SANGER: Inhibition of human GP5d cell growth in a cell viability assay.
# HuO-3N1 = type: functional, cell-based, Homo sapiens; settings: Homo sapiens, HuO-3N1;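 note: cell viability readout used to measure how strongly compounds suppress proliferation of human HuO-3N1 cells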
# Description: SANGER: Inhibition of human HuO-3N1 cell growth in a cell viability assay.
# NCI-H82 = type: functional, cell-based; settings: Homo sapiens;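 note: growth inhibition of NCI-H82 cells, measured with a cell viability readout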
# Description: SANGER: Inhibition of human NCI-H82 cell growth in a cell viability assay.
# CAL-33 = type: functional, cell-based, Homo sapiens; settings: Homo sapiens, CAL-33;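 note: growth inhibition of CAL-33 cells, read out with a cell viability assay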
# Description: SANGER: Inhibition of human CAL-33 cell growth in a cell viability assay.
# VMRC-RCZ = type: functional, cell-based; settings: Homo sapiens;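 note: growth inhibition measured with a cell viability assay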
# Description: SANGER: Inhibition of human VMRC-RCZ cell growth in a cell viability assay.
# COLO-800 = type: functional, cell-based, Homo sapiens; settings: Homo sapiens, COLO-800;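 note: growth inhibition of COLO-800 cells, read out with a cell viability assay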
# Description: SANGER: Inhibition of human COLO-800 cell growth in a cell viability assay.
# SK-MEL-2 = type: functional, cell-based, Homo sapiens; settings: Homo sapiens, SK-MEL-2;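 note: growth inhibition of human SK-MEL-2 cells measured with a cell viability assay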
# Description: SANGER: Inhibition of human SK-MEL-2 cell growth in a cell viability assay.
# MDA-MB-175-VII = type: functional, cell-based, Homo sapiens; settings: Homo sapiens, MDA-MB-175-VII
# A673 = type: functional, cell-based, Homo sapiens; settings: Homo sapiens, A673;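 note: growth inhibition of human A673 cells, read out through a cell viability assay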
# Description: SANGER: Inhibition of human A673 cell growth in a cell viability assay.
# KYSE-450 = type: functional, cell-based; settings: Homo sapiens;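 note: cell growth inhibition measured by a viability assay in human KYSE-450 cells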
# Description: SANGER: Inhibition of human KYSE-450 cell growth in a cell viability assay.
# DSH1 = type: functional, cell-based, Homo sapiens; settings: Homo sapiens, DSH1;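 note: growth inhibition of human DSH1 cells, measured with a cell viability readout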
# Description: SANGER: Inhibition of human DSH1 cell growth in a cell viability assay.
# NCI-H1792 = type: functional, cell-based, Homo sapiens; settings: Homo sapiens, NCI-H1792;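 note: growth inhibition of human NCI-H1792 cells, read out as cell viability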
# Description: SANGER: Inhibition of human NCI-H1792 cell growth in a cell viability assay.
# GMS-10 = type: functional, cell-based, Homo sapiens; settings: Homo sapiens, GMS-10;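 note: growth inhibition of GMS-10 cells, read out as cell viability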
# Description: SANGER: Inhibition of human GMS-10 cell growth in a cell viability assay.
# HCC1806 = type: functional, cell-based, Homo sapiens; settings: Homo sapiens, HCC1806;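 note: growth inhibition of the cancer cell line, determined with a cell viability assay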
# Description: SANGER: Inhibition of human HCC1806 cell growth in a cell viability assay.
# TE-12 = type: functional, cell-based; settings: Homo sapiens;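 note: growth inhibition of TE-12 cells, read out by a cell viability assay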
# Description: SANGER: Inhibition of human TE-12 cell growth in a cell viability assay.
# NCI-H1648 = type: functional, cell-based, Homo sapiens; settings: Homo sapiens, NCI-H1648;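 note: cell viability assay measuring inhibition of NCI-H1648 cell growth, from the Sanger screening data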
# Description: SANGER: Inhibition of human NCI-H1648 cell growth in a cell viability assay.
# HEL = type: functional, cell-based, Homo sapiens; settings: Homo sapiens, HEL;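 note: growth inhibition of HEL cells, read out with a cell viability assay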
# Description: SANGER: Inhibition of human HEL cell growth in a cell viability assay.
# GOTO = type: functional, cell-based, Homo sapiens; settings: Homo sapiens, GOTO;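 note: growth inhibition of GOTO cells, read out by a cell viability assay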
# Description: SANGER: Inhibition of human GOTO cell growth in a cell viability assay.
# CCRF-CEM = type: functional, cell-based; settings: Homo sapiens;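 note: inhibition of CCRF-CEM cell growth, measured by a cell viability assay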
# Description: SANGER: Inhibition of human CCRF-CEM cell growth in a cell viability assay.
# MOLT-4 = type: functional, cell-based; settings: Homo sapiens;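 note: growth inhibition of MOLT-4 cells, determined with a cell viability readout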
# Description: SANGER: Inhibition of human MOLT-4 cell growth in a cell viability assay.
# ONS-76 = type: functional, cell-based, Homo sapiens; settings: Homo sapiens, ONS-76;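 note: growth inhibition of human ONS-76 cells, read out with a cell viability assay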
# Description: SANGER: Inhibition of human ONS-76 cell growth in a cell viability assay.
# TE-1 = type: functional, cell-based, Homo sapiens; settings: Homo sapiens, TE-1
# Description: SANGER: Inhibition of human TE-1 cell growth in a cell viability assay.
# SK-MEL3 = type: functional, cell-based, Homo sapiens, SK-MEL-3; settings: Homo sapiens, SK-MEL3;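 note: growth inhibition of human SK-MEL-3 cells, read out with a cell viability assay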
# Description: SANGER: Inhibition of human SK-MEL-3 cell growth in a cell viability assay.
smiles,measurement,setting,value
Cn1cc(C2=C(c3ccc(Cl)cc3Cl)C(=O)NC2=O)c2ccccc21 [SB-216763],IC50,BCPAP,> 10 µM
same,IC50,MFM-223,> 10 µM
same,IC50,ASPC1,> 10 µM
same,IC50,GI-ME-N,> 10 µM
same,IC50,MZ7-mel,> 10 µM
same,IC50,697,> 10 µM
same,IC50,CAL-39,> 10 µM
same,IC50,CAL-54,> 10 µM
same,IC50,NCI-H1437,> 10 µM
same,IC50,HAL-01,> 10 µM
same,IC50,NCI-H1155,> 10 µM
same,IC50,Ca-Ski,> 10 µM
same,IC50,SK-N-DZ,> 10 µM
same,IC50,H4,> 10 µM
same,IC50,HDLM-2,0.21 µM
same,IC50,BHY,> 10 µM
same,IC50,MHH-PREB-1,> 10 µM
same,IC50,NCI-H1651,> 10 µM
same,IC50,LCLC-97TM1,> 10 µM
same,IC50,EC-GI-10,> 10 µM
same,IC50,KYSE-410,> 10 µM
same,IC50,M059J,> 10 µM
same,IC50,EW-18,> 10 µM
same,IC50,ES3,> 10 µM
same,IC50,NMC-G1,> 10 µM
same,IC50,NB5,> 10 µM
same,IC50,MCF7,> 10 µM
same,IC50,A498,> 10 µM
same,IC50,GP5d,> 10 µM
same,IC50,HuO-3N1,> 10 µM
same,IC50,NCI-H82,> 10 µM
same,IC50,CAL-33,> 10 µM
same,IC50,VMRC-RCZ,> 10 µM
same,IC50,COLO-800,> 10 µM
same,IC50,SK-MEL-2,> 10 µM
same,IC50,MDA-MB-175-VII,> 10 µM
same,IC50,A673,> 10 µM
same,IC50,KYSE-450,> 10 µM
same,IC50,DSH1,> 10 µM
same,IC50,NCI-H1792,> 10 µM
same,IC50,GMS-10,> 10 µM
same,IC50,HCC1806,> 10 µM
same,IC50,TE-12,> 10 µM
same,IC50,NCI-H1648,> 10 µM
same,IC50,HEL,> 10 µM
same,IC50,GOTO,> 10 µM
same,IC50,CCRF-CEM,> 10 µM
same,IC50,MOLT-4,> 10 µM
same,IC50,ONS-76,> 10 µM
same,IC50,TE-1,> 10 µM
same,IC50,SK-MEL3,> 10 µM
Cc1cc(Nc2cc(N3CCN(C)CC3)nc(Sc3ccc(NC(=O)C4CC4)cc3)n2)n[nH]1 [TOZASERTIB],IC50,MFM-223,> 2 µM
same,IC50,GI-ME-N,> 2 µM
same,IC50,MZ7-mel,> 2 µM
same,IC50,697,0.0247 µM
same,IC50,HAL-01,1.17 µM
same,IC50,NCI-H1155,> 2 µM
same,IC50,SK-N-DZ,0.962 µM
same,IC50,HDLM-2,> 2 µM
same,IC50,MHH-PREB-1,> 2 µM
same,IC50,EC-GI-10,> 2 µM
same,IC50,EW-18,> 2 µM
same,IC50,ES3,> 2 µM
same,IC50,NMC-G1,> 2 µM
same,IC50,NB5,1.64 µM
same,IC50,A498,> 2 µM
same,IC50,NCI-H82,> 2 µM
same,IC50,COLO-800,> 2 µM
same,IC50,SK-MEL-2,> 2 µM
same,IC50,DSH1,> 2 µM
same,IC50,TE-12,> 2 µM
same,IC50,NCI-H1648,> 2 µM
same,IC50,HEL,> 2 µM
same,IC50,GOTO,> 2 µM
same,IC50,CCRF-CEM,0.653 µM
same,IC50,MOLT-4,0.233 µM
same,IC50,ONS-76,0.665 µM
same,IC50,TE-1,> 2 µM
